What was measured:
PC-3 cells = assay: Growth inhibition of PC-3 cells derived from lung cancer, 72 h, methylene blue staining; type: cell-based
Experimental: (§1) After 24-hour incubation under the conditions of 37° C. and 5% CO2, 10 μl of the novel fat-soluble platinum complex was added in various concentrations and the PC-3 cells and SW-1116 cells were further cultured for 72 hours and 96 hours, respectively. Thereafter, the culture was drawn off from each well by using an aspirator, fixed with MeOH, then added with a 0.05% methylene blue/10 mM tris-(hydroxymethyl)aminomethanehydrochloric acid buffer solution (pH 8.5) at a rate of 100 μl/well and stained at room temperature for 30 minutes. Thereafter, each well was cleared of the staining solution by using an aspirator and washed three times with pure water. Then 3% hydrochloric acid solution was added at a rate of 200 μl/well, and after sealing, the culture was left at room temperature for about 24 hours and the pigment was extracted from the cells. The absorbance (A660) of each well at 660 nm was measured by a dynamic microplate reader, and the growth inhibition rate (%) at each concentration was calculated from the following equation. […] [formula]

SW-1116 cells = assay: Growth inhibition of SW-1116 cells derived from colon cancer, 96 h, methylene blue staining; type: cell-based
Experimental: as §1

[1] = in words, prior art; cited from earlier work
[2] = in words, clinical use; cited from earlier work

| IC50 PC-3 (PC-3 cells) | IC50 SW-1116 (SW-1116 cells) | Solubility in water | Molecule | antitumor effect [1] | side effects [2] |
| --- | --- | --- | --- | --- | --- |
| 1.57 µg/mL | 0.21 µg/mL |  | CC(C)(O)C(=O)[O-].CC(C)(O)C(=O)[O-].N[C@@H]1CCCC[C@H]1N.[Pt+2] (relative stereo) [compound No. 8, cis-Bis(2-hydroxy-2-methylpropionato)-trans-1,2-diaminocyclohexane platinum (II)] |  |  |
| 0.50 µg/mL | 0.065 µg/mL |  | CC(C)(CO)C(=O)[O-].CC(C)(CO)C(=O)[O-].N[C@@H]1CCCC[C@H]1N.[Pt+2] (relative stereo) [compound No. 10, cis-Bis(3-hydroxy-2,2-dimethylpropionato)-trans-1,2-diaminocyclohexane platinum (II)] |  |  |
| 0.76 µg/mL | 0.085 µg/mL |  | CC(O)(CCO)CC(=O)[O-].CC(O)(CCO)CC(=O)[O-].N[C@@H]1CCCC[C@H]1N.[Pt+2] (relative stereo) [compound No. 13, Cis-Bis(3,5-dihydroxy-3-methylvalerato)-trans-1,2-diaminocyclohexane platinum (II)] |  |  |
| 0.73 µg/mL | 0.37 µg/mL | > 100 mg/mL | CC(C)(CO)[C@@H](O)C(=O)[O-].CC(C)(CO)[C@@H](O)C(=O)[O-].NCC1(N)CCCCC1.[Pt+2] [compound No. 4, cis-Bis[(R)-2,4-dihydroxy-3,3-dimethylbutyrato]-1-amino-1-aminomethylcyclohexane platinum (II)] |  |  |
| 2.03 µg/mL | 0.25 µg/mL |  | CC(C)(CO)C([O-])C(=O)[O-].NC1CCCCC1N.[Pt+2] (stereo not drawn) [compound No. 18, cis-[2-(2-Hydroxy-1,1-dimethylethyl)-glycolato-O,O']-trans-1,2-diaminocyclohexane platinum (II)] |  |  |

The next lines start with the molecule.

| Molecule | IC50 PC-3 (PC-3 cells) | IC50 SW-1116 (SW-1116 cells) | Solubility in water | antitumor effect [1] | side effects [2] |
| --- | --- | --- | --- | --- | --- |
| CC(C)(CO)[C@@H](O)C(=O)NCCC(=O)[O-].CC(C)(CO)[C@@H](O)C(=O)NCCC(=O)[O-].N[C@@H]1CCCC[C@H]1N.[Pt+2] (stereo in doubt) [compound No. 17, cis-Bis[(R)-pantothenato]-trans-(R,R)-1,2-diaminocyclohexane platinum (II)] | 0.60 µg/mL | 0.082 µg/mL |  |  |  |
| CC(C)(CO)C(=O)[O-].CC(C)(CO)C(=O)[O-].C[C@@H](CN)CCN.[Pt+2] (stereo in doubt) [compound No. 20, cis-Bis(3-hydroxy-2,2-dimethylpropionato)(R)-1,4-diamino-2-methylbutane platinum (II)] | 0.35 µg/mL | 0.36 µg/mL | > 20 mg/mL |  |  |
| CC(C)(CO)C([O-])C(=O)[O-].C[C@@H](CN)CCN.[Pt+2] (stereo in doubt) [compound No. 21, cis-[2-(2-Hydroxy-1,1-dimethylethyl)-glycolato-O,O']-(R)-1,4-diamino-2-methylbutane platinum (II)] | 0.53 µg/mL | 0.37 µg/mL | > 100 mg/mL |  |  |
| N.N.[Cl][Pt][Cl] [cis-Platin, cis-dichlorodiammine platinum (II), reference compound] | 0.40 µg/mL | 0.36 µg/mL |  | very excellent antitumor effect | strong side effects such as renal toxicity and vomitting toxicity |
| CC(C)(CO)C(O)C(=O)[O-].CC(C)(CO)C(O)C(=O)[O-].NC1CCCCC1N.[Pt+2] [compound No. 9, cis-Bis[(S)-2,4-dihydroxy-3,3-dimethylbutyrato]-trans-(R,R)-1,2-diaminocyclohexane platinum (II)] | 0.45 µg/mL | 0.057 µg/mL |  |  |  |
| CC(O)(CCO)CC(=O)[O-].CC(O)(CCO)CC(=O)[O-].N.N.[Pt+2] (stereo not drawn) [compound No. 12, cis-Bis(3,5-dihydroxy-3-methylvalerato)-diammine platinum (II)] |  |  | > 100 mg/mL |  |  |
| CC(O)(CCO)CC(=O)[O-].CC(O)(CCO)CC(=O)[O-].NCC1(N)CCCCC1.[Pt+2] (stereo not drawn) [compound No. 15, cis-Bis(3,5-dihydroxy-3-methylvalerato)-1-amino-1-aminomethylcyclohexane platinum (II)] | 0.80 µg/mL | 0.14 µg/mL | > 100 mg/mL |  |  |
| CC(C)(CO)C(O)C(=O)[O-].CC(C)(CO)C(O)C(=O)[O-].CC(CN)CCN.[Pt+2] [compound No. 19, cis-Bis[(R)-2,4-dihydroxy-3,3-dimethylbutyrato]-(R)-1,4-diamino-2-methylbutane platinum (II)] | 0.40 µg/mL | 0.36 µg/mL |  |  |  |
| cis-Bis[(R)-2,4-dihydroxy-3,3-dimethylbutyrato]-trans-(R,R)-1,2-diaminocyclohexane platinum (II) [compound No. 5] | 0.60 µg/mL | 0.060 µg/mL | > 100 mg/mL |  |  |
| cis-Bis[(R)-2,4-dihydroxy-3,3-dimethylbutyrato]diammine platinum (II) [compound No. 1] |  |  | > 100 mg/mL |  |  |

Reference: US5130450A, “Platinum complexes” (Nippon Kayaku Kabushiki Kaisha, priority 1990, dated 1992)
